Reference: PubChem BioAssay AID2060883 (Molecular Pharmacology Branch, DTP, NCI, 2025)
Where “and” joins values, the source holds several entries; their conditions need not be identical. Identical values can stand only once. Blank lines part the entries; values can stand above or below the compound they belong to.

Test system: 843782-103-R-J1-PDC complex spheroid viability
Experiment: Anticancer human tumor 843782-103-R-J1-PDC patient-derived lung adenocarcinoma cell line growth inhibition [RAS]
Conditions: for viability, T/C: stronger effect = lower value; for IC50: curve of first compound
Source text: RAS pathway inhibitors in Combinations in Complex Spheroids
A high-throughput screen of multi-cell type tumor spheroids was designed to identify active combinations of RAS pathway inhibitors and targeted small molecules. Complex spheroids include a stromal component modeled by human endothelial cells (HUVEC) and fibroblasts modeled by human mesenchymal stem cells (MSCs). The concentration ranges selected for each drug and investigational agent were based upon clinically achievable concentrations if the clinical Cmax of the agent was known.
Compounds. The drugs and investigational agents: abemaciclib (NSC768073), cobimetinib (NSC768068), divarasib (GDC6063, NSC841802), docetaxel (NSC628503), GDC-1971 (RLY-1971, NSC841576), gemcitabine (NSC613327), inavolisib (NSC800729), ipatasertib (NSC767898), KB-0742 (NSC834161), MRTX-1133 (NSC836407), osimertinib (NSC779217), RMC-4630 (NSC839698), RMC-6236 (NSC851965), RMC-6291 (NSC852671), Ro-3306 (NSC812927), sapanisertib (NSC764658), SN-38 (NSC673596), staurosporine (NSC755774), SY5609 (NSC837396), and tovorafenib (DAY101, NSC766906), were obtained from the National Cancer Institute (NCI) Developmental Therapeutics Program Chemical Repository. The FDA-approved anticancer drug set is available from the NCI Developmental Therapeutics Program. […] The stock solutions were prepared in dimethyl sulfoxide (DMSO, Sigma-Aldrich, St. Louis, MO, cat. D2650) at 800-fold the tested concentration and stored at -70 degrees C prior to their use. All drugs and investigational agents were tested over a range starting from a high concentration at or near the clinical Cmax and decreasing in half-log increments. If the clinical Cmax for an agent had not been determined, the highest concentration tested was 10 microM.
Cell Culture. All cells were maintained in an incubator at 37 degrees C and 5% CO2 with 95% humidity. The PDC lines were cultured according to standard operating procedures established by the NCI PDMR. All PDCs were thawed and cultured in Matrigel-coated flasks prepared with a working solution of 1X Ham's F-12 nutrient mix, without supplementation (Invitrogen, Waltham, MA, cat. 11765054), 100 U/mL penicillin-streptomycin (Invitrogen, cat. 15140122), and 2.5% Matrigel (Corning Inc., Corning, NY, cat. 354248) for the first three passages. The 362531-283-R-J2-PDC and 782815-120-R-J1-PDC lines were cultured in 6C/Colon 1B media, which includes advanced DMEM/F-12 (Thermo Fisher Scientific, cat. 12634028), 10 mM HEPES (Thermo Fisher Scientific, cat. 15630080), 1X GlutaMAX supplement (Thermo Fisher Scientific, cat. 35050061), 0.1 mg/mL primocin (InvivoGen, San Diego, CA, cat. ant-pm-2), 10% defined fetal bovine serum, heat inactivated (HyClone Laboratories Inc., Logan, UT, cat. SH30070.03HI), 50% L-WRN conditioned media (ATCC, cat. CRL-3276), 1.25 mM N-Acetyl-L-cysteine (Sigma-Aldrich, cat. A9165), 10 mM nicotinamide (Sigma-Aldrich, cat. N0636), 1X B-27 supplement (Thermo Fisher Scientific, cat. 17504044), 1X N-2 supplement (Thermo Fisher Scientific, cat. 17502048), 50 ng/mL human EGF (Thermo Fisher Scientific, cat. PHG0311), and 10 microM Y-27632 dihydrochloride (Tocris Bioscience, cat. 1254). The K12877-001-R-J1-PDC line was cultured in 6I media, which includes all 6C/Colon 1B media plus 10 ng/mL human FGF-10 (PeproTech, cat. 100-26), 1 ng/mL human FGF-2 (PeproTech, cat. 100-18B), 1 µM prostaglandin E2 (Tocris Bioscience, cat. 2296), […] hydrocortisone (Sigma-Aldrich, cat. H4001), and […] bovine insulin (Sigma-Aldrich, cat. I6634). The K86415-001-R-J1-PDC line was cultured in 6D media, which includes all 6C/Colon 1B media components minus the L-WRN conditioned media. The 485176-168-R4-J1-PDC was cultured in PANC media, which includes all 6C/Colon 1B media plus 100 ng/mL human FGF-10 (PeproTech, cat. 100-26), 500 nM SB-431542 (Selleckchem, cat. S1067), and 10 nM gastrin (Tocris Bioscience, cat. 3006). […]
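Further: viability read after seven days of compound exposure.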

Structure (SMILES): O=C(c1ccc(F)c(F)c1Nc1ccc(I)cc1F)N1CC(O)([C@@H]2CCCCN2)C1
viability, T/C (compound 0.00316 µM): 99.8% and 99.4% and 102% (2×) | viability, T/C (compound 0.01 µM): 93.1% [middle of 4 runs] | viability, T/C (compound 0.316 µM): 48.7% [middle of 4 runs] | viability, T/C (compound 1 µM): 27.1% [middle of 4 runs]

IC50 (second compound 0.000949 µM): 1.49 nM | IC50 (second compound 0.003 µM): 0.963 nM | IC50 (second compound 0.00949 µM): < 0.949 nM | IC50 (second compound 0.03 µM): < 0.949 nM | IC50 (second compound 0.0949 µM): < 0.949 nM | IC50 (second compound 0.3 µM): < 0.949 nM
Structure (SMILES): CCc1c2c(nc3ccc(O)cc13)-c1cc3c(c(=O)n1C2)COC(=O)[C@]3(O)CC + CCn1c(-c2cc(N3CCN(C)CC3)cnc2C(C)OC)c2c3cc(ccc31)-c1csc(n1)CC(NC(=O)C1CC1C)C(=O)N1CCCC(N1)C(=O)OCC(C)(C)C2
viability, T/C (second compound 0.000949 µM, first compound 0.000949 µM): 68.4% | viability, T/C (second compound 0.000949 µM, first compound 0.003 µM): 21.8% | viability, T/C (second compound 0.000949 µM, first compound 0.00949 µM): 4.84% | viability, T/C (second compound 0.000949 µM, first compound 0.03 µM): 2.16% | viability, T/C (second compound 0.000949 µM, first compound 0.0949 µM): 1.13% | viability, T/C (second compound 0.000949 µM, first compound 0.3 µM): 0.96% | viability, T/C (second compound 0.003 µM, first compound 0.000949 µM): 50.8% | viability, T/C (second compound 0.003 µM, first compound 0.003 µM): 20.9% | viability, T/C (second compound 0.003 µM, first compound 0.00949 µM): 5.17% | viability, T/C (second compound 0.003 µM, first compound 0.03 µM): 1.82% | viability, T/C (second compound 0.003 µM, first compound 0.0949 µM): 1.45% | viability, T/C (second compound 0.003 µM, first compound 0.3 µM): 1.05% | viability, T/C (second compound 0.00949 µM, first compound 0.000949 µM): 38% | viability, T/C (second compound 0.00949 µM, first compound 0.003 µM): 17.9% | viability, T/C (second compound 0.00949 µM, first compound 0.00949 µM): 5.27% | viability, T/C (second compound 0.00949 µM, first compound 0.03 µM): 2.03% | viability, T/C (second compound 0.00949 µM, first compound 0.0949 µM): 2.15% | viability, T/C (second compound 0.00949 µM, first compound 0.3 µM): 0.92% | viability, T/C (second compound 0.03 µM, first compound 0.000949 µM): 18.9% | viability, T/C (second compound 0.03 µM, first compound 0.003 µM): 15.3% | viability, T/C (second compound 0.03 µM, first compound 0.00949 µM): 5.86% | viability, T/C (second compound 0.03 µM, first compound 0.03 µM): 2.53% | viability, T/C (second compound 0.03 µM, first compound 0.0949 µM): 1.38% | viability, T/C (second compound 0.03 µM, first compound 0.3 µM): 0.97% | viability, T/C (second compound 0.0949 µM, first compound 0.000949 µM): 14.2% | viability, T/C (second compound 0.0949 µM, first compound 0.003 µM): 13.4% | viability, T/C (second compound 0.0949 µM, first compound 0.00949 µM): 5.71% | viability, T/C (second compound 0.0949 µM, first compound 0.03 µM): 2.6% | viability, T/C (second compound 0.0949 µM, first compound 0.0949 µM): 1.4% | viability, T/C (second compound 0.0949 µM, first compound 0.3 µM): 1.46% | viability, T/C (second compound 0.3 µM, first compound 0.000949 µM): 13.5% | viability, T/C (second compound 0.3 µM, first compound 0.003 µM): 11.7% | viability, T/C (second compound 0.3 µM, first compound 0.00949 µM): 5.29% | viability, T/C (second compound 0.3 µM, first compound 0.03 µM): 2.41% | viability, T/C (second compound 0.3 µM, first compound 0.0949 µM): 1.96% | viability, T/C (second compound 0.3 µM, first compound 0.3 µM): 0.79%
